Test results from US20250171495A1, “MUTLI-TARGETED SERINE PROTEASE INHIBITORS FOR TREATMENT OF CANCER AND VIRAL INFECTION” (Washington University, priority 2023, published 2025).

Legend:
Assay type in all cases: biochemical
TMPRSS2 = TMPRSS2 (Homo sapiens, UniProt O15393); assay: PS-SCL / HyCoSuL substrate specificity screening, TMPRSS2; conditions: for P2 Position Substrate Activity for TMPRSS2 (percent substrate cleavage/proteolysis): residue fixed at P2 position of substrate library; for P2 Position Substrate Activity for TMPRSS2 (percent substrate cleavage/proteolysis) / P3 Position Substrate Activity for TMPRSS2 (percent substrate cleavage/proteolysis) / P4 Position Substrate Activity for TMPRSS2 (percent substrate cleavage/proteolysis): best recognized amino acid set to 100%; for P3 Position Various Amino Acids Substrate Activity, TMPRSS2 (percent substrate cleavage/proteolysis) / P3 Position Substrate Activity for TMPRSS2 (percent substrate cleavage/proteolysis): residue fixed at P3 position of substrate library; for P4 Position Various Amino Acids Substrate Activity, TMPRSS2 (percent substrate proteolysis/cleavage) / P4 Position Substrate Activity for TMPRSS2 (percent substrate cleavage/proteolysis): residue fixed at P4 position of substrate library
hepsin = biological target: T1, hepsin (Homo sapiens, UniProt P05981); assay: HyCoSuL P4-P2 substrate specificity screening, hepsin; conditions: for P2 Position Substrate Activity for hepsin (percent substrate cleavage/proteolysis): residue fixed at P2 position; for P2 Position Substrate Activity for hepsin (percent substrate cleavage/proteolysis) / P3 Position Substrate Activity for hepsin (percent substrate cleavage/proteolysis) / P4 Position Substrate Activity for hepsin (percent substrate cleavage/proteolysis): P1-Arg HyCoSuL, 100 μM, best recognized amino acid set to 100%; for P3 Position Substrate Activity for hepsin (percent substrate cleavage/proteolysis): residue fixed at P3 position; for P4 Position Substrate Activity for hepsin (percent substrate cleavage/proteolysis): residue fixed at P4 position; for P3 Position Various Amino Acids Substrate Activity, hepsin (percent substrate cleavage/proteolysis): residue fixed at P3 position of substrate library; for P4 Position Various Amino Acids Substrate Activity, hepsin (percent substrate proteolysis/cleavage): residue fixed at P4 position of substrate library
T1 construct: purchased R&D Systems 4776-SE-010

HGFA = biological target: T2, HGFA (Homo sapiens, UniProt Q04756); assay: HyCoSuL P4-P2 substrate specificity screening, HGFA; conditions: for P2 Position Substrate Activity for HGFA (percent substrate cleavage/proteolysis): residue fixed at P2 position; for P2 Position Substrate Activity for HGFA (percent substrate cleavage/proteolysis) / P3 Position Substrate Activity for HGFA (percent substrate cleavage/proteolysis) / P4 Position Substrate Activity for HGFA (percent substrate cleavage/proteolysis): P1-Arg HyCoSuL, 100 μM, best recognized amino acid set to 100%; for P3 Position Substrate Activity for HGFA (percent substrate cleavage/proteolysis): residue fixed at P3 position; for P4 Position Substrate Activity for HGFA (percent substrate cleavage/proteolysis): residue fixed at P4 position; for P3 Position Various Amino Acids Substrate Activity, HGFA (percent substrate cleavage/proteolysis): residue fixed at P3 position of substrate library; for P4 Position Various Amino Acids Substrate Activity, HGFA (percent substrate proteolysis/cleavage): residue fixed at P4 position of substrate library
T2 sequence (Q04756 373-655): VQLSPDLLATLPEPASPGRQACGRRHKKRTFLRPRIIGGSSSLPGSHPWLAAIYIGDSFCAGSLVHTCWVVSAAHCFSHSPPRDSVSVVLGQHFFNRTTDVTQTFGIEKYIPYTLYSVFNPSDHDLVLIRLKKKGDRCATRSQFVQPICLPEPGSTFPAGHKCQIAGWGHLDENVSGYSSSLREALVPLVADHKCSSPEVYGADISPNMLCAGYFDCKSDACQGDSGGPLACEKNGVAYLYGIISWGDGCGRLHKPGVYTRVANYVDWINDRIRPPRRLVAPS

matriptase = biological target: T3, matriptase (Homo sapiens, UniProt Q9Y5Y6); assay: HyCoSuL P4-P2 substrate specificity screening, matriptase; conditions: for P2 Position Substrate Activity for matriptase (percent substrate cleavage/proteolysis): residue fixed at P2 position; for P2 Position Substrate Activity for matriptase (percent substrate cleavage/proteolysis) / P3 Position Substrate Activity for matriptase (percent substrate cleavage/proteolysis) / P4 Position Substrate Activity for matriptase (percent substrate cleavage/proteolysis): P1-Arg HyCoSuL, 100 μM, best recognized amino acid set to 100%; for P3 Position Various Amino Acids Substrate Activity, matriptase (percent substrate cleavage/proteolysis): residue fixed at P3 position of substrate library; for P3 Position Substrate Activity for matriptase (percent substrate cleavage/proteolysis): residue fixed at P3 position; for P4 Position Various Amino Acids Substrate Activity, matriptase (percent substrate proteolysis/cleavage): residue fixed at P4 position of substrate library; for P4 Position Substrate Activity for matriptase (percent substrate cleavage/proteolysis): residue fixed at P4 position
T3 sequence (Q9Y5Y6 1-855): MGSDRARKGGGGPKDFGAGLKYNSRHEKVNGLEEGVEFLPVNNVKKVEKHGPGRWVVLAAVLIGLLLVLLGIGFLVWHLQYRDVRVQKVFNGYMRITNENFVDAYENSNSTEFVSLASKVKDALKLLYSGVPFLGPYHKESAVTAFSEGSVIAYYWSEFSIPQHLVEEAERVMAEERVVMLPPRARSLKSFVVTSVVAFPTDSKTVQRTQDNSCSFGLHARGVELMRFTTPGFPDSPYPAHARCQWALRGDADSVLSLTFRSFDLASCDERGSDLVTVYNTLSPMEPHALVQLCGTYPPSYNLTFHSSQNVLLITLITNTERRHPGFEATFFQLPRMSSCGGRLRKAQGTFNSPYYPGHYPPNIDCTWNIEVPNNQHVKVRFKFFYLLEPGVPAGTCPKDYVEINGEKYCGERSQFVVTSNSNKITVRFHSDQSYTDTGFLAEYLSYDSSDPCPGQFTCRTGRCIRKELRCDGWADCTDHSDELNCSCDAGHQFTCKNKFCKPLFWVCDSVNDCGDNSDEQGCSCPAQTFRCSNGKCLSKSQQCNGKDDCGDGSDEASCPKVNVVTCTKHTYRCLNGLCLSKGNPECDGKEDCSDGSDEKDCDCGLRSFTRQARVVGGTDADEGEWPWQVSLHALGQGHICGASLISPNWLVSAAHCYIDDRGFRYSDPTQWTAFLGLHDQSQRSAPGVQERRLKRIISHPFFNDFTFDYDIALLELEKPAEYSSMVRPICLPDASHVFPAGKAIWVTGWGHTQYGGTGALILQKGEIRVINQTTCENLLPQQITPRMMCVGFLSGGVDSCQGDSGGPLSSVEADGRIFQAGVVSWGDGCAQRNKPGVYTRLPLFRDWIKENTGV

TMPRSS2, sequence (O15393 whole entry): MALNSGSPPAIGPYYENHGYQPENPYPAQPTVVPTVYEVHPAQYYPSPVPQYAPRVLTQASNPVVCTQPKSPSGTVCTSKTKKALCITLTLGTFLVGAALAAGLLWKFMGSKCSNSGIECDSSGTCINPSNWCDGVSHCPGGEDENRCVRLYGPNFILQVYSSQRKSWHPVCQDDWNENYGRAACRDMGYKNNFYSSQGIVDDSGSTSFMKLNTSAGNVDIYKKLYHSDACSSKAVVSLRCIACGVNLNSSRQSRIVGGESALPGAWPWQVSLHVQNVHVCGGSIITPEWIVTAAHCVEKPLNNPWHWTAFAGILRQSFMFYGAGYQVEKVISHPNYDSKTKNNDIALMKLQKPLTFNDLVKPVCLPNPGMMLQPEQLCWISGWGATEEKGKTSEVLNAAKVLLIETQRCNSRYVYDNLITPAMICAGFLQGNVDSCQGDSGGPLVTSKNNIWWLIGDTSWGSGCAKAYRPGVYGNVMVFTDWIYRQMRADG
T1 sequence (P05981 163-417 limits assumed): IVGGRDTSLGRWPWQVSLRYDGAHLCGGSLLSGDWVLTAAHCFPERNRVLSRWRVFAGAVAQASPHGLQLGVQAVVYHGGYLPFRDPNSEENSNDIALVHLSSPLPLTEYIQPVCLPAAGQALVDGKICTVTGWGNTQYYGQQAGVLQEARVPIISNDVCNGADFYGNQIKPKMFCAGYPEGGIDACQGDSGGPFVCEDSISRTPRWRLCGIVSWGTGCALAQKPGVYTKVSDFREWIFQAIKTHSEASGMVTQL
T1 sequence (P05981 1-162 partner limits assumed): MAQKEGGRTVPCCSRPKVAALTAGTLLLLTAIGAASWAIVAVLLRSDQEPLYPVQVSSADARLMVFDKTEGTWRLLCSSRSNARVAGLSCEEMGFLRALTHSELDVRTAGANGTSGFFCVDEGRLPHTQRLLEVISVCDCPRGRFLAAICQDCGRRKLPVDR

Molecule	P2 Position Substrate Activity for TMPRSS2 (percent substrate cleavage/proteolysis) (TMPRSS2) [%]	P3 Position Various Amino Acids Substrate Activity, TMPRSS2 (percent substrate cleavage/proteolysis) (TMPRSS2) [%]	P4 Position Various Amino Acids Substrate Activity, TMPRSS2 (percent substrate proteolysis/cleavage) (TMPRSS2) [%]	P3 Position Substrate Activity for TMPRSS2 (percent substrate cleavage/proteolysis) (TMPRSS2) [%]	P4 Position Substrate Activity for TMPRSS2 (percent substrate cleavage/proteolysis) (TMPRSS2) [%]	P2 Position Substrate Activity for hepsin (percent substrate cleavage/proteolysis) (hepsin) [%]	P3 Position Substrate Activity for hepsin (percent substrate cleavage/proteolysis) (hepsin) [%]	P4 Position Substrate Activity for hepsin (percent substrate cleavage/proteolysis) (hepsin) [%]	P2 Position Substrate Activity for HGFA (percent substrate cleavage/proteolysis) (HGFA) [%]	P3 Position Substrate Activity for HGFA (percent substrate cleavage/proteolysis) (HGFA) [%]	P4 Position Substrate Activity for HGFA (percent substrate cleavage/proteolysis) (HGFA) [%]	P2 Position Substrate Activity for matriptase (percent substrate cleavage/proteolysis) (matriptase) [%]	P3 Position Various Amino Acids Substrate Activity, matriptase (percent substrate cleavage/proteolysis) (matriptase) [%]	P3 Position Substrate Activity for matriptase (percent substrate cleavage/proteolysis) (matriptase) [%]	P4 Position Various Amino Acids Substrate Activity, matriptase (percent substrate proteolysis/cleavage) (matriptase) [%]	P4 Position Substrate Activity for matriptase (percent substrate cleavage/proteolysis) (matriptase) [%]	P3 Position Various Amino Acids Substrate Activity, hepsin (percent substrate cleavage/proteolysis) (hepsin) [%]	P4 Position Various Amino Acids Substrate Activity, hepsin (percent substrate proteolysis/cleavage) (hepsin) [%]	P3 Position Various Amino Acids Substrate Activity, HGFA (percent substrate cleavage/proteolysis) (HGFA) [%]	P4 Position Various Amino Acids Substrate Activity, HGFA (percent substrate proteolysis/cleavage) (HGFA) [%]
NC1(C(=O)O)CCCC1 [AC5C]	0.00	0.00	17.02																	
N[C@@H](Cc1ccc(F)cc1)C(=O)O [L-Phe(4-F)]	100.00	14.82	21.80			32.86			4.84			65	11		8		5.16	27.78	15.01	11.22
O=C(O)[C@@H]1CCCCN1 [L-Pip]	24.73	0.00	15.31			10.66			1.75			10	0		11		1.64	34.68	0.83	9.25
Cn1cc(C[C@H](N)C(=O)O)c2ccccc21 [L-Trp(Me)]	32.33	21.50	16.80			7.81			1.12			1	7		6		0.00	0.00	18.14	2.49
CC(C)CC[C@H](N)C(=O)O [L-hLeu]	8.15	35.41	53.91			14.44			72.69			5	25		27		13.84	41.61	23.44	14.86
L-Met	8.64	45.55	38.95									5	41							

Further lines, results first:

P2 Position Substrate Activity for TMPRSS2 (percent substrate cleavage/proteolysis) (TMPRSS2) [%]	P3 Position Various Amino Acids Substrate Activity, TMPRSS2 (percent substrate cleavage/proteolysis) (TMPRSS2) [%]	P4 Position Various Amino Acids Substrate Activity, TMPRSS2 (percent substrate proteolysis/cleavage) (TMPRSS2) [%]	P3 Position Substrate Activity for TMPRSS2 (percent substrate cleavage/proteolysis) (TMPRSS2) [%]	P4 Position Substrate Activity for TMPRSS2 (percent substrate cleavage/proteolysis) (TMPRSS2) [%]	P2 Position Substrate Activity for hepsin (percent substrate cleavage/proteolysis) (hepsin) [%]	P3 Position Substrate Activity for hepsin (percent substrate cleavage/proteolysis) (hepsin) [%]	P4 Position Substrate Activity for hepsin (percent substrate cleavage/proteolysis) (hepsin) [%]	P2 Position Substrate Activity for HGFA (percent substrate cleavage/proteolysis) (HGFA) [%]	P3 Position Substrate Activity for HGFA (percent substrate cleavage/proteolysis) (HGFA) [%]	P4 Position Substrate Activity for HGFA (percent substrate cleavage/proteolysis) (HGFA) [%]	P2 Position Substrate Activity for matriptase (percent substrate cleavage/proteolysis) (matriptase) [%]	P3 Position Various Amino Acids Substrate Activity, matriptase (percent substrate cleavage/proteolysis) (matriptase) [%]	P3 Position Substrate Activity for matriptase (percent substrate cleavage/proteolysis) (matriptase) [%]	P4 Position Various Amino Acids Substrate Activity, matriptase (percent substrate proteolysis/cleavage) (matriptase) [%]	P4 Position Substrate Activity for matriptase (percent substrate cleavage/proteolysis) (matriptase) [%]	P3 Position Various Amino Acids Substrate Activity, hepsin (percent substrate cleavage/proteolysis) (hepsin) [%]	P4 Position Various Amino Acids Substrate Activity, hepsin (percent substrate proteolysis/cleavage) (hepsin) [%]	P3 Position Various Amino Acids Substrate Activity, HGFA (percent substrate cleavage/proteolysis) (HGFA) [%]	P4 Position Various Amino Acids Substrate Activity, HGFA (percent substrate proteolysis/cleavage) (HGFA) [%]	Molecule
52.14			71.88	63.90	0.00	82.17	91.83	0.00	30.67	16.90	0	75	75.40	49	48.54					N[C@@H](CCCCOCc1ccccc1)C(=O)O [L-Nle(O-Bzl)]
28.86	19.38	34.19			51.85			8.33			8	18		29		16.77	43.08	9.51	11.66	CC(C)[C@H](N)C(=O)O [L-Val]
0.00	0.00	27.00			0.00			0.00			0	2		6		48.09	18.44	9.84	7.11	D-Ala
0.00			0.00	24.43	0.00	66.08	44.37	0.00	29.10	23.20	0	8	7.82	18	17.66					D-Arg
